The values below come from article PMC8839658, “Design and Activity of Novel Oxadiazole Based Compounds That Target Poly(ADP-ribose) Polymerase” (Molecules, 2022).

Assay [1] has as its system PARP1. The note with it: read-out: IC50, PARP1 activity; cited from earlier work.
Assay [2] has as its system PARP1. Conditions: read-out: cellular EC50; cited from earlier work.
Assay [3] concerns the target autophagy activating kinase 1 (ULK1). More on the design: method as in PMID 32967366. The note with it: cited from earlier work.
The subject of assay [4] is MDA-MB-231 cells. The assay is described as follows: MDA-MB-231 cell viability assay (Alamar Blue). It is filed as cell-based, human. The note with it: MDA-MB-231, 72 h. The procedure:
(§1) Initially, the newly synthesized oxadiazoles were examined in cell viability studies in human breast cancer (MCF-7) cells using Alamar Blue assays.
(§2) MCF-7 and MDA-MB-231 (2000) cells were cultured in MEM or Leibovitz’s L-15 medium enriched with 2% FBS and maintained in a humidified atmosphere of 5% CO2 at 37 °C [44]. DMSO dissolved compounds were kept as a stock solution, and diluted with a cell culture medium to the desired concentration. Cancer cells (4 × 10^3) were grown overnight in 96-well plates, cultured, and treated with oxadiazoles or Olaparib at 0, 0.01, 0.1, 10, 100, and 1000 µM concentrations for 72 h. The inhibitory effect of the compounds was assessed using Alamar Blue reagent.
(§3) MCF-7 and MDA-MB-231 were treated with 5u, 5s and Olaparib (0, 0.01, 0.1, 1, 10, 100 µM) for 72 h, respectively. The viability of MCF-7 (A) and MDA-MB-231 cells (B) were analyzed using a microplate reader to measure the fluorescence of Alamar Blue reagent (excitation wavelength is between 530–560 nm and emission wavelength is 590 nm). The results are means of triplicate determinations.
(Resazurin is reduced to fluorescent resorufin, in cell work by metabolically active cells.)

Assay [5] has as its system MCF-7 cells. Briefly: MCF-7 cell viability assay (Alamar Blue). Format: cell-based, human. The procedure:
as §1, §2, §3

The target of assay [6] is T1, recombinant human PARP enzyme (PARP1) (Homo sapiens, UniProt P09874).
T1 construct: purchased R&D Systems Ltd., Abingdon, UK 4677-096-K
Briefly: PARP activity, PARP/Apoptosis Universal Colorimetric Assay Kit. Conditions: n = 3. Format: biochemical. The procedure: PARP activity was measured using the PARP/Apoptosis Universal Colorimetric Assay Kit (4677-096-K, R&D Systems Ltd., Abingdon, UK). The enzyme inhibition assay uses the histone proteins immobilized 96-well plate, which measures the incorporation of ADP-ribose (biotin-tagged), followed by detection using streptavidin-conjugated horse-radish peroxidase, and finally the color development after the addition of substrate. Oxadiazoles were incubated with the recombinant human PARP enzyme prior to detection.

Assay [7] concerns MCF-7 cells. The assay is described as follows: 3D Matrigel growth, MCF-7 cells. Format: cell-based, human. The note with it: MCF-7, 4% Matrigel, 1 or 10 µM, Alamar Blue. The procedure: (§4) Cells were grown in a medium containing 4% Matrigel. Cells were treated with vehicles or compounds 5s, 5u, or Olaprib (1 or 10 µM), after colonies had formed. Compounds were added into the culture medium every 3 days for a total of 2 cycles. Alamar Blue assay was used for quantification of live cells. The data are expressed as mean ± SEM. * p ≤ 0.05; ** p ≤ 0.01; *** p ≤ 0.001.

For assay [8], the system named is MDA-MB-231 cells. The assay is described as follows: 3D Matrigel growth, MDA-MB-231 cells. Format: cell-based, human. Conditions: MDA-MB-231, 4% Matrigel, 1 or 10 µM, Alamar Blue. The procedure:
as §4

For assay [9], the system named is MDA-MB-231 cells. The assay is described as follows: Western blot, PARP1 cleavage in MDA-MB-231 cells. It is filed as cell-based, human. Conditions: MDA-MB-231, 1 or 10 µM, 60 h. The procedure:
(§5) Western blot analysis was performed to determine the levels of PARP1 cleavage and p-H2AX in MCF-7 and MDA-MB-231 cells using previously reported methods. Cells at 50–60% confluence were treated with compounds and incubated for 60 h in 2% FBS. MCF-7 and MDA-MB-231 cells were also treated with Olaparib, 5u, or 5s and the levels of cleaved PARP1 and p-H2A-X were determined using the respective antibodies.
(§6) Figure 4 The effect of compounds 5u, 5s, and Olaparib on PARP1 cleavage (upper panel of A,B) phosphorylation of H2A-X (Ser139) (lower panel of A,B), and CASPASE-3 activity (C,D) in MCF-7 and MDA-MB-231 cells. Cancer cells were treated with or without compounds 5u, 5s,and Olaparib (1 or 10 µM). The protein levels after treatment were observed by western blot analysis. GAPDH was used as input control. The data are expressed as mean ± SEM. ** p ≤ 0.01; *** p ≤ 0.001.

Assay [10] relates to MCF-7 cells. Briefly: Western blot, PARP1 cleavage in MCF-7 cells. It is filed as cell-based, human. Conditions: MCF-7, 1 or 10 µM, 60 h. The procedure: as §5, §6
Assay [11] has as its system MCF-7 cells. Briefly: Western blot, p-H2AX (Ser139) in MCF-7 cells. It is filed as cell-based, human. The note with it: MCF-7, 1 or 10 µM, 60 h. The procedure:
as §5, §6
(In western blotting, separated proteins are transferred to a membrane and probed.)

The subject of assay [12] is MCF-7 cells. The assay is described as follows: Foci formation assay, MCF-7 cells. Format: cell-based, human. Conditions: MCF-7, crystal violet. The procedure:
(§7) MCF-7 and MDA-MB-231 cells were plated in six-well plates in 2 mL media with or without compounds and cultured. When foci had formed, MCF-7 and MDA-MB-231 cells were washed with PBS and fixed with ice-cold methanol for 10 min at 4°C. Methanol was removed and crystal violet solution was used to stain foci at room temperature for 10 min. The resultant solution was removed; immobilized MCF-7 and MDA-MB-231 cells were rinsed with distilled water and dried at room temperature.
(§8) Figure 5 Compounds 5u, 5s, and Olaparib inhibited the foci formation of MCF-7 (left panel of A) and MDA-MB-231 (left panel of B) cells. Visualization of foci formed was achieved by use of Crystal Violet. Inhibition of foci formation was also quantified (right panels of both A,B) The data are expressed as mean ± SEM. * p ≤ 0.05; ** p ≤ 0.01; *** p ≤ 0.001.

For assay [13], the system named is MDA-MB-231 cells. The assay is described as follows: Western blot, p-H2AX (Ser139) in MDA-MB-231 cells. Format: cell-based, human. The note with it: MDA-MB-231, 1 or 10 µM, 60 h. The procedure: as §5, §6
Assay [14] concerns MDA-MB-231 cells. Briefly: Foci formation assay, MDA-MB-231 cells. It is filed as cell-based, human. Conditions: MDA-MB-231, crystal violet. The procedure:
as §7, §8

[15] abbreviates: Homo sapiens, Alamar Blue, Figure 2B, read-out: Log IC50, MDA-MB-231 (converted).
Where [16] appears, read: Homo sapiens, Alamar Blue, read-out: IC50, cell viability of MDA-MB-231 cells.
[17] abbreviates: Alamar Blue, read-out: IC50, cell viability of MDA-MB-231 cells.
The mark [18] stands for this setting: Homo sapiens, MCF7, 72 h, MCF-7, 72 h, Alamar Blue, Figure 2A, read-out: Log IC50, MCF-7 (converted).
Where [19] appears, read: Homo sapiens, MCF7, 72 h, MCF-7, 72 h, Alamar Blue, read-out: IC50, cell viability of MCF-7 cells.
The mark [20] stands for this setting: MCF-7, 72 h, Alamar Blue, read-out: IC50, cell viability of MCF-7 cells.

In general, IC50 refers to the concentration that inhibits the measured activity by half. A word on the EC50: it is the midpoint of the concentration-response curve. By inhibition is commonly meant how much of the control response was suppressed.

Read-outs that look alike come from different tables or passages of the source.

T1 sequence (P09874 whole entry): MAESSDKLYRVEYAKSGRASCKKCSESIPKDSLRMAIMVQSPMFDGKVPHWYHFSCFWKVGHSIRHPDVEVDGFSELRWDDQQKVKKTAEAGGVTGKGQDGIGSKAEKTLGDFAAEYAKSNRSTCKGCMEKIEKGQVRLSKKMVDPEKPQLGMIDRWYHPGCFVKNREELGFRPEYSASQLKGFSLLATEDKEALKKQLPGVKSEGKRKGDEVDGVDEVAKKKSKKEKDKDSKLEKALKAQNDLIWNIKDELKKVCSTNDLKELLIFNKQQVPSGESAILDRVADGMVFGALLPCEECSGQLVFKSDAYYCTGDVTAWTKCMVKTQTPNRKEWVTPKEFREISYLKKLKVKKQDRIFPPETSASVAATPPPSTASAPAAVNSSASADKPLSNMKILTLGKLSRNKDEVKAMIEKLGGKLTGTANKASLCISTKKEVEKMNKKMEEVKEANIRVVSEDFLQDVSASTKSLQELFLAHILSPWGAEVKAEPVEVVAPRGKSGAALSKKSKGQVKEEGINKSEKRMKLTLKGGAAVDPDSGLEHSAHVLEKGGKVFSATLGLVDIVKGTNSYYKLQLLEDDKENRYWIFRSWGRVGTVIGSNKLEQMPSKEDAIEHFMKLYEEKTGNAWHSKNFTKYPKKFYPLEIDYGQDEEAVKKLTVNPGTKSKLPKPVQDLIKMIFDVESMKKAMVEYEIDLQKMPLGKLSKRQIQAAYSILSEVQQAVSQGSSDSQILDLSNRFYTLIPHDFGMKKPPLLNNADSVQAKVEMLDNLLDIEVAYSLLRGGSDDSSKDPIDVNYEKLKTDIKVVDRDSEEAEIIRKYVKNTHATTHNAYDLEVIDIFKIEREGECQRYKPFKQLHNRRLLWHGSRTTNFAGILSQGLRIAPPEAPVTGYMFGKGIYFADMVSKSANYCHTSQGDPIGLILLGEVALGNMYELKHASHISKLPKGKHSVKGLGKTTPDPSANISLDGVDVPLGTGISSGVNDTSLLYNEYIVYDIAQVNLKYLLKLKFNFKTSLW

As for `NC(=O)c1cccc2[nH]c(-c3ccc(-c4nnco4)cc3)nc12` [compound 1], the IC50 in assay [1] was 0.001 µM. Moreover, the EC50 in [2] is 0.0037 µM.

For `FC(F)(F)c1cnc(Nc2ccc3c(c2)OCCO3)nc1NC1CC1` [compound 2], in [3], the IC50 is 0.014 µM.

For the compound `COc1ccc(Cc2nnc(-c3cccc(-c4ccnc(F)c4C)c3)o2)cc1OC` [compound 5s, 2-(3,4-Dimethoxybenzyl)-5-(3-(2-fluoro-3-methylpyridin-4-yl)phenyl)-1,3,4-oxadiazole], the concentration for half-maximal inhibition (IC50) is 19.1 µM in assay [4] (setting [15]); 19.2 µM in [4] (setting [16]); 19.2 µM in assay [4] (setting [17]); 15.5 µM in [5] (setting [18]); 15.3 µM in [5] (setting [19]); 15.3 µM in assay [5] (setting [20]). In addition, the inhibition at 0.01 µM in assay [6] was 2.38%. Further, the inhibition at 0.1 µM in assay [6] amounted to 10.6%. Moreover, in assay [6], the inhibition at 1 µM was found to be 21.3%. In addition, the inhibition at 10 µM in assay [6] came out at 65%. Moreover, the inhibition at 100 µM in assay [6] was found to be 76.5%. Further, the “3D growth in Matrigel” value in [7] and in assay [8] was “roughly equivalent efficacy to Olaparib” throughout. Further, the PARP1 cleavage entry in assay [9] and in assay [10] was “Equivalent levels of cleaved PARP1” throughout. Besides, the “level of p-H2AX” value in assay [11] and in [13] was “equivalent increases in the level of p-H2AX” throughout. Besides, the foci formation result in assay [12] and in assay [14] was “decreased in a dose-dependent manner” throughout.

On to `COc1ccc(Cc2nnc(-c3cccc(-c4cccc(C=O)c4)c3)o2)cc1` [compound 5u, 3′-(5-(4-Methoxybenzyl)-1,3,4-oxadiazol-2-yl)-[1,1′-biphenyl]-3-carbaldehyde], for which the IC50 was 29.5 µM in assay [4] (setting [15]); 29.3 µM in [4] (setting [16]); 29.3 µM in assay [4] (setting [17]); 1.45 µM in assay [5] (setting [18]); 1.45 µM in assay [5] (setting [19]); 1.4 µM in assay [5] (setting [20]). Moreover, the inhibition at 0.01 µM in assay [6] was determined as 4.82%. Further, the inhibition at 0.1 µM in assay [6] stood at 6.84%. For the same compound, the inhibition at 1 µM in assay [6] stood at 45.4%. The inhibition at 10 µM in [6] was found to be 54.2%. The inhibition at 100 µM in assay [6] came out at 82.2%. The “3D growth in Matrigel” value in assay [7] and in assay [8] was “roughly equivalent efficacy to Olaparib” throughout. For the same compound, the PARP1 cleavage entry in assay [9] and in assay [10] was “Equivalent levels of cleaved PARP1” in each case. The “level of p-H2AX” value in assay [11] and in [13] was “equivalent increases in the level of p-H2AX” throughout. Moreover, the foci formation result in [12] and in [14] was “decreased in a dose-dependent manner” throughout.

`O=C(c1cc(Cc2n[nH]c(=O)c3ccccc23)ccc1F)N1CCN(C(=O)C2CC2)CC1` [Olaparib, reference compound]: the IC50 was 70.2 µM in assay [4] (Homo sapiens, read-out: IC50, cell viability of MDA-MB-231 cells); 70.2 µM in assay [4] (Homo sapiens, read-out: IC50, cell viability of MDA-MB-231 cells, MDA-MB-231, 72 h, Alamar Blue); 70.8 µM in assay [4] (Homo sapiens, read-out: Log IC50, MDA-MB-231 (converted)); 3.31 µM in [5] (Homo sapiens, MCF7, 72 h, read-out: Log IC50, MCF-7, MCF-7, 72 h, Alamar Blue (converted), Figure 2A); 3.2 µM in assay [5] (read-out: IC50, cell viability of MCF-7 cells, MCF-7, 72 h, Alamar Blue). For the same compound, the “3D growth in Matrigel” value in assay [7] and in assay [8] was “inhibited the growth” throughout. In addition, the PARP1 cleavage entry in assay [9] and in assay [10] was “Equivalent levels of cleaved PARP1” in each case. Besides, the “level of p-H2AX” value in assay [11] and in [13] was “equivalent increases in the level of p-H2AX” in each case. The foci formation result in assay [12] and in [14] was “decreased in a dose-dependent manner” throughout.
